Experimental data from patent US9249117B2, “Use of compounds from Antrodia camphorata in manufacturing medicaments for treating kidney diseases” (priority 2014, dated 2016).

Experiments:
ROS in mesangial cells = test: Determination of reactive oxygen species (ROS) in LPS-treated mesangial cells; format: cell-based, Mouse; conditions: in 5 minutes; for effect for inhibiting ROS / anti-oxidative effect (in words): 0.012 μg/ml and 0.048 μg/ml; for inhibition at 0.012 µg/mL / inhibition at 0.048 µg/mL: Mus musculus, Mesangial cell, 5 min, read-out: Inhibiting ROS %
Protocol: Determination of ROS was by detecting the intensity of fluorescence from an oxide of 2′,7′-dichlorofluorescein diacetate (2′,7′-dichlorofluorescein diacetate). The mesangial cells was treated as compounds which are to be measured, and 2′,7′-dichlorofluorescein diacetate (2 μM) was added to react for 30 minutes. After reaction for 30 minutes, LPS was added at specific time. Then, the signals were determined by […] (Bio-Rad Laboratories, Inc) with exciting wavelength of 485 nm and emitting wavelength of 530 nm.
Because ROS was inseparably related to kidney diseases, the results for determination of ROS in the aforementioned cells were shown in FIG. 2A-2F.

MCP-1 = test: Anti-inflammatory response: MCP-1 in supernatant by ELISA; format: cell-based, Mouse; conditions: for anti-inflammation (MCP-1) inhibition effect (in words): 0.012 μg/ml and 0.048 μg/ml; for inhibition at 0.012 µg/mL / inhibition at 0.048 µg/mL: Mus musculus, read-out: Inhibited MCP-1 level
Protocol: It is known that MCP1 plays an important role in interstitial inflammation, tubular atrophy, and kidney fibrosis. Therefore, by performing the protein test, the effects of Antrodia camphorata about anti-inflammation for the cells in kidney can be determined.
According to the manual, MCP-1 in the supernatant was detected by ELISA kits (Biosciences, Los Angeles, Calif., USA) and was determined by ELISA reader (Bio-Tek) (for wavelength absorbance of 450 nm). * * * indicated as p<0.005, NS indicated.

[1] = system: mesangial cells (Mouse MC line CRL-1927); test: MTT cell viability assay using mesangial cells; conditions: all chosen concentrations (0.01~200 μg/ml), 48 hours, FIGS. 1A-1F
Protocol: Here, Mouse MC line CRL-1927 was used in order to proceed the subsequent experiments. The cell line was derived from American Type Culture Collection (Rockville, Md., USA), and then was operated regular culture with a culture medium consisted of Dulbecco's modified Eagle's medium and Ham's F-12 medium with 3:1 ratio, and adding 5% fetal bovine serum and 14 mM HEPES.
The aforementioned cell line was cultured in the culture medium for 24 hours. The cells after hyperplasia were washed once with PBS, and treated with 1 time trypsin-EDTA, and followed by centrifuging at 1,200 rpm for 5 minutes, and the cells sedimented to form the cell pellet and the supernatant was removed. Then, 10 ml fresh medium was added, and the cells were re-suspended by shaking slightly. The cells were placed in 96-well microplate. When they were tested, 0.01˜200 μg/ml compounds from Antrodia camphorata were added into each of the well. The cells were incubated at 37° C. with 5% CO2 for 48 hours. Subsequently, 5 mg/ml 3-(4,5-dimethylthiazol-2-yl)-2,5-diphenyltetrazolium bromide (MTT) were added into the each well to react in the dark environment for 2 hours. Furthermore, in order to calculate the survival rate of the cells, the absorbance at wavelength of 570 nm was determined by enzyme-linked immunosorbent assay, and then the needed concentration for the half growth inhibition ratio (IC50) was calculated. […]

**Q.** With 4-acetyl-Antroquinonol B as the compound, how does the “effect for inhibiting ROS / anti-oxidative effect (in words)” value (ROS in mesangial cells) read?
**A.** exhibited anti-oxidation for nephritis cells

**Q.** What about the “Inhibiting ROS %” value (ROS in mesangial cells; 0.012 μg/ml) of the same compound?
**A.** 5%

**Q.** And the “Inhibiting ROS %” value (ROS in mesangial cells; 0.048 μg/ml)?
**A.** 12%

**Q.** What about the “Inhibited MCP-1 level” value (MCP-1; 0.012 μg/ml) of the same compound?
**A.** 0%

**Q.** What about the “Inhibited MCP-1 level” value (MCP-1; 0.048 μg/ml) of the same compound?
**A.** 0%

**Q.** And the “effect on mesangial cell growth (MTT cell viability)” value [1]?
**A.** did not affect mesangial cells to grow

**Q.** `COC1=C(OC)C(O)C(CC=C(C)CCC=C(C)CC(O)C=C(C)C)C(C)C1=O` (centres unmarked) [Antrocamol LT1, 4-hydroxy-5-[9-hydroxy-3,7,11-trimethyldodeca-2,6,10-trienyl]-2,3-dimethoxy-6-met hyl-cyclohex-2-enone] was tested. Which inhibition at 0.012 µg/mL (ROS in mesangial cells; 0.012 μg/ml) did it give?
**A.** 3%

**Q.** What about the inhibition at 0.048 µg/mL (ROS in mesangial cells; 0.048 μg/ml) of the same compound?
**A.** 14%

**Q.** And the “anti-inflammation (MCP-1) inhibition effect (in words)” value (MCP-1)?
**A.** did not have the effects of inhibition

**Q.** And the inhibition at 0.012 µg/mL (MCP-1; 0.012 μg/ml)?
**A.** 0%

**Q.** And the inhibition at 0.048 µg/mL (MCP-1; 0.048 μg/ml)?
**A.** 0%

**Q.** For `COC1=C(OC)C(OC(C)=O)C(CC=C(C)CCC=C(C)CC(O)C=C(C)C)C(C)C1=O` (centres unmarked) [Antrocamol LT2, 4-acetoxy-5-[9-hydroxy-3,7,11-trimethyldodeca-2,6,10-trienyl]-2,3-dimethoxy-6-met hyl-cyclohex-2-enone], which inhibition at 0.012 µg/mL (ROS in mesangial cells; 0.012 μg/ml) is on record?
**A.** 0%

**Q.** What about the inhibition at 0.048 µg/mL (ROS in mesangial cells; 0.048 μg/ml) of the same compound?
**A.** 0%

**Q.** And the “anti-inflammation (MCP-1) inhibition effect (in words)” value (MCP-1)?
**A.** did not have the effects of inhibition

**Q.** What about the inhibition at 0.012 µg/mL (MCP-1; 0.012 μg/ml) of the same compound?
**A.** 0%

**Q.** And the inhibition at 0.048 µg/mL (MCP-1; 0.048 μg/ml)?
**A.** 0%

**Q.** With `COC1=C(OC)[C@H](O)[C@H](C/C=C(\C)CC/C=C(\C)C/C=C/C(C)(C)O)[C@@H](C)C1=O` [Antrocamol LT3, (4R,5R,6R)-4-hydroxy-5-[(2E,6E,9E)-11-hydroxy-3,7,11-trimethyldodeca-2,6,9-trienyl]-2,3-dimethoxy-6-methylcyclohex-2-enone] as the compound, how does the “effect for inhibiting ROS / anti-oxidative effect (in words)” value (ROS in mesangial cells) read?
**A.** did not have the inhibiting effect

**Q.** And the inhibition at 0.012 µg/mL (ROS in mesangial cells; 0.012 μg/ml)?
**A.** 0%

**Q.** And the inhibition at 0.048 µg/mL (ROS in mesangial cells; 0.048 μg/ml)?
**A.** 0%

**Q.** What about the “anti-inflammation (MCP-1) inhibition effect (in words)” value (MCP-1) of the same compound?
**A.** better effect for inhibiting MCP-1 level

**Q.** What about the inhibition at 0.012 µg/mL (MCP-1; 0.012 μg/ml) of the same compound?
**A.** 0%

**Q.** What about the inhibition at 0.048 µg/mL (MCP-1; 0.048 μg/ml) of the same compound?
**A.** 40.2%

**Q.** `COC1=C(OC)[C@H](O)[C@H](C/C=C(\C)CC/C=C(\C)CCC=C(C)C)[C@@H](C)C1=O` [Antroquinonol, reference compound] was tested. Which “effect for inhibiting ROS / anti-oxidative effect (in words)” value (ROS in mesangial cells) did it give?
**A.** did not have the inhibiting effect

**Q.** What about the inhibition at 0.012 µg/mL (ROS in mesangial cells; 0.012 μg/ml) of the same compound?
**A.** 0%

**Q.** What about the inhibition at 0.048 µg/mL (ROS in mesangial cells; 0.048 μg/ml) of the same compound?
**A.** 0%

**Q.** What about the “anti-inflammation (MCP-1) inhibition effect (in words)” value (MCP-1) of the same compound?
**A.** did not have the effects of inhibition

**Q.** And the inhibition at 0.012 µg/mL (MCP-1; 0.012 μg/ml)?
**A.** 0%

**Q.** What about the inhibition at 0.048 µg/mL (MCP-1; 0.048 μg/ml) of the same compound?
**A.** 0%

**Q.** Which results are given for Antroquinonol B?
**A.** effect for inhibiting ROS / anti-oxidative effect (in words) (ROS in mesangial cells): exhibited anti-oxidation for nephritis cells; Inhibiting ROS % (ROS in mesangial cells; 0.012 μg/ml): 0%; Inhibiting ROS % (ROS in mesangial cells; 0.048 μg/ml): 12.5%; Inhibited MCP-1 level (MCP-1; 0.012 μg/ml): 0%; anti-inflammation (MCP-1) inhibition effect (in words) (MCP-1): did not have the effects of inhibition; Inhibited MCP-1 level (MCP-1; 0.048 μg/ml): 0%; effect on mesangial cell growth (MTT cell viability) [1]: did not affect mesangial cells to grow
